{"source": "patent US5385931A", "about": "“Sulfonamides derived from benzocyclic or benzoheterocyclic acids, their preparation and application in therapeutics” (Pierre Fabre Medicament, priority 1989, dated 1995)", "key": {"Solubility in water": {"experiment": "Solubility in water", "format": "physicochemical", "conditions": "for solubility: read-out: soluble in water to give a solution of"}, "[1]": {"test_system": "blood platelet aggregation induced by U.46619", "experiment": "In vitro rabbit platelet aggregation induced by U.46619", "format": "cell-based, New Zealand rabbits", "conditions": "Oryctolagus cuniculus; rabbit platelet-rich plasma; U.46619 1.05 to 2.44 micromoles; pre-incubated 1 min at 37° C., pH 7.4", "experimental": "(§1) Blood is taken from white male New Zealand rabbits which have not received any treatment capable of disrupting the platelet functions.\n(§2) After having allowed the first drops to flow freely, the blood is collected in plastic tubes containing 3.8% (wt/v) trisodium citrate 5.5 H2 O, the citrate/blood ratio being 1 volume of citrate per 9 volumes of blood.\n(§3) The blood platelet aggregation study is carried out starting from plasmas rich in platelets obtained by centrifuging the above blood samples at low speed. It is measured with the aid of a Mustard aggregometer at a wavelength of 609 nm with a stirring speed of 1,100 revolutions/min.\n(§4) The products to be studied are dissolved in polyethylene glycol 300 and pre-incubated for 1 min at 37° C. under a volume of 10 microliters,in a mixture of 300 microliters of plasma rich in platelets and 90 microliters of Tyrode's solution without calcium, pH=7.4. (Corresponding controls are produced by pre-incubating the vehicle on its own instead of solutions of products to be studied).\n(§5) The blood platelet aggregation is initiated by the addition either of U.46619 (final concentrations: 1.05 to 2.44 micromoles) or of arachidonic acid (final concentrations: 50 to 100 micromoles).\n(§6) Starting from the parameter of the maximum percentage aggregation, the anti-aggregant activity of a product is calculated using the formula: [formula]\nOne curve: anti-aggregant activity=f (final concentration) is plotted for each product and the 50% inhibitory concentration determined from the graph.\nIn the case of aggregation with U.46619, the IC50 are given in Table I for compounds 1, 2, 3, 7 and 11 by way of non-limiting example: […]"}, "conventional mice": {"test_system": "conventional mice", "experiment": "Toxicology, intraperitoneal, mice", "format": "in vivo", "conditions": "500 mg per kilo intraperitoneally", "experimental": "The chemical compounds described above were subjected to toxicity checks. This study was carried out on conventional mice weighing from 20 to 22 g. The compounds of general formula I were administered intraperitoneally."}, "Solubility in DMSO": {"experiment": "Solubility in DMSO", "format": "physicochemical"}, "[2]": {"test_system": "blood platelet aggregation induced by arachidonic acid", "experiment": "In vitro rabbit platelet aggregation induced by arachidonic acid", "format": "cell-based, New Zealand rabbits", "conditions": "arachidonic acid 50 to 100 micromoles", "experimental": "as §1, §2, §3, §4, §5, §6\nThe percentage inhibition of the aggregation with arachidonic acid is given in Table II for compounds 2 and 3 by way of non-limiting examples: […]"}, "[3]": {"test_system": "platelet aggregation induced by U.46619", "experiment": "Ex vivo inhibition of U.46619-induced platelet aggregation after oral administration in rabbits", "parameters": "species or system New Zealand rabbits", "conditions": "t=+90 min relative to control curve at t=0", "experimental": "b) Ex vivo action: inhibition of anti-aggregant effects using U.46619 in rabbits.\nBecause of their powerful activity in vitro, the anti-aggregant effects ex vivo were studied in rabbits. The substances of general formula I, which are the subject of the present invention, are administered orally as a 1% suspension in carboxymethylcellulose to natural male New Zealand rabbits weighing 2.5 to 3 kg after going without nourishment for about 18 h. Blood samples were taken by cardiac puncture at time 0 and after 90 min. The aggregant U.46619 was used under the same conditions as above and the measurement of the aggregation was carried out using the same technique.\nThe results are expressed in Table III in terms of percentage inhibition of the maximum amplitude of the aggregation curve at t=+90 min relative to the control curve at t=0 and are given for compounds 2 and 3 by way of non-limiting example: […]"}}, "note": "pIC50: −log10 of the molar value.", "data": [{"smiles": "O=C(CNS(=O)(=O)c1ccc(Cl)cc1)c1ccc2c(c1)CCC(C(=O)O)O2", "note": "(racemic) [Compound 27, dl-Lysine 6-(parachlorobenzenesulphonamidoacetyl)-2-chromancarboxylate]", "values": [{"measurement": "solubility", "setting": "Solubility in water", "value": 10000, "unit": "µg/mL"}]}, {"smiles": "O=C(CNS(=O)(=O)c1ccc(Cl)cc1)c1ccc2c(c1)CC(C(=O)O)C2", "note": "(racemic) [Compound 29, dl-Lysine 5-(parachlorobenzenesulphonamidoacetyl)-2-indanecarboxylate]", "values": [{"measurement": "solubility", "setting": "Solubility in water", "value": 5000, "unit": "µg/mL"}]}, {"smiles": "O=C(CNS(=O)(=O)c1ccc(Cl)cc1)c1ccc2c(c1)CC(C(=O)O)O2", "note": "(stereo not drawn) [Compound 1, 5-(parachlorobenzenesulphonamidoacetyl)-2,3-dihydro-2-benzofurancarboxylicacid]", "values": [{"measurement": "pIC50", "setting": "[1]", "value": 6.22}, {"measurement": "fatality", "setting": "conventional mice", "value": "not a single fatality"}, {"measurement": "toxicity", "setting": "conventional mice", "value": "atoxic"}, {"measurement": "soluble in DMSO to give a solution of", "setting": "Solubility in DMSO", "value": 10, "unit": "%"}]}, {"smiles": "O=C(O)C1Cc2cc(CCNS(=O)(=O)c3ccc(Cl)cc3)ccc2O1", "note": "(stereo not drawn) [Compound 2, 5-(2-parachlorobenzenesulphonamidoethyl)-2,3-dihydro-2-benzofurancarboxylic acid]", "values": [{"measurement": "pIC50", "setting": "[1]", "value": 6.30}, {"measurement": "inhibition at 100 µM", "setting": "[2]; Oryctolagus cuniculus, Platelet, final concentration of compound 10^-4 M", "value": -100, "unit": "%"}, {"measurement": "inhibition at 10 µM", "setting": "[2]; Oryctolagus cuniculus, Platelet, final concentration of compound 10^-5 M", "value": -79, "unit": "%"}, {"measurement": "% inhibition of platelet aggregation", "setting": "[2]; final concentration of compound 5.10^-6 M", "value": -31, "unit": "%"}, {"measurement": "% inhibition of aggregation", "setting": "[3]; 5 mg/kg orally", "value": -64, "unit": "%"}, {"measurement": "% inhibition of aggregation", "setting": "[3]; 10 mg/kg orally", "value": -98, "unit": "%"}, {"measurement": "fatality", "setting": "conventional mice", "value": "not a single fatality"}, {"measurement": "toxicity", "setting": "conventional mice", "value": "atoxic"}, {"measurement": "soluble in DMSO to give a solution of", "setting": "Solubility in DMSO", "value": 10, "unit": "%"}]}, {"smiles": "O=C(O)C1Cc2cc(CCNS(=O)(=O)c3ccc(Cl)cc3)ccc2O1", "note": "(stereo not drawn) [Compound 4, 5-(2-parachlorobenzenesulphonamidoethyl)-2,3-dihydro-2-benzofurancarboxylic acid monohydrate]", "values": [{"measurement": "soluble in DMSO to give a solution of", "setting": "Solubility in DMSO", "value": 10, "unit": "%"}]}, {"smiles": "CC(NS(=O)(=O)c1ccc(Cl)cc1)C(=O)c1ccc2c(c1)CC(C(=O)O)O2", "note": "(stereo not drawn) [Compound 5, 5-(α-methylparachlorobenzenesulphonamidoacetyl)-2,3-dihydro-2-benzofurancarboxylic acid]", "values": [{"measurement": "soluble in DMSO to give a solution of", "setting": "Solubility in DMSO", "value": 10, "unit": "%"}]}, {"smiles": "CC(NS(=O)(=O)c1ccc(Cl)cc1)C(O)c1ccc2c(c1)CC(C(=O)O)O2", "note": "(stereo not drawn) [Compound 6, 5-(2-Parachlorobenzenesulphonamido-1-hydroxypropyl)-2,3-dihydro-2-benzofurancarboxylic acid]", "values": [{"measurement": "soluble in DMSO to give a solution of", "setting": "Solubility in DMSO", "value": 5, "unit": "%"}]}, {"smiles": "O=C(O)C1CCc2cc(CCNS(=O)(=O)c3ccc(Cl)cc3)ccc2O1", "note": "(stereo not drawn) [Compound 7, 6-(2-Parachlorobenzenesulphonamidoethyl)-2-chromancarboxylic acid]", "values": [{"measurement": "pIC50", "setting": "[1]", "value": 6.30}, {"measurement": "soluble in DMSO to give a solution of", "setting": "Solubility in DMSO", "value": 20, "unit": "%"}]}, {"smiles": "O=C(O)C1Oc2ccc(CCNS(=O)(=O)c3ccc(Cl)cc3)cc2O1", "note": "(stereo not drawn) [Compound 8, 5-(2-Parachlorobenzenesulphonamidoethyl)-1,3-benzodioxole-2-carboxylic acid]", "values": [{"measurement": "soluble in DMSO to give a solution of", "setting": "Solubility in DMSO", "value": 20, "unit": "%"}]}, {"smiles": "O=C(O)C1Cc2ccc(CCNS(=O)(=O)c3ccc(Cl)cc3)cc2C1", "note": "(stereo not drawn) [Compound 9, 5-(2-parachlorobenzenesulphonamidoethyl)-2-indanecarboxylic acid]", "values": [{"measurement": "soluble in DMSO to give a solution of", "setting": "Solubility in DMSO", "value": 10, "unit": "%"}]}, {"smiles": "O=C(O)C1Cc2cc(CCNS(=O)(=O)c3ccc(Cl)cc3)ccc2S1", "note": "(stereo not drawn) [Compound 10, 5-(2-Parachlorobenzenesulphonamidoethyl)-2,3-dihydro-2-benzothiophenecarboxylic acid]", "values": [{"measurement": "soluble in DMSO to give a solution of", "setting": "Solubility in DMSO", "value": 20, "unit": "%"}]}, {"smiles": "O=C(O)c1cc2cc(CCNS(=O)(=O)c3ccc(Cl)cc3)ccc2o1", "note": "[Compound 11, 5-(2-Parachlorobenzenesulphonamidoethyl)-2-benzofurancarboxylic acid]", "values": [{"measurement": "pIC50", "setting": "[1]", "value": 5.70}, {"measurement": "soluble in DMSO to give a solution of", "setting": "Solubility in DMSO", "value": 5, "unit": "%"}]}, {"smiles": "O=C(O)C1Cc2cc(C(CNS(=O)(=O)c3ccc(Cl)cc3)=NO)ccc2O1", "note": "(stereo not drawn) [Compound 13]", "values": [{"measurement": "soluble in DMSO to give a solution of", "setting": "Solubility in DMSO", "value": 10, "unit": "%"}]}, {"smiles": "CON=C(CNS(=O)(=O)c1ccc(Cl)cc1)c1ccc2c(c1)CC(C(=O)O)O2", "note": "(stereo not drawn) [Compound 14, 5-(2-parachlorobenzenesulphonamido-1-methoxyiminoethyl)-2,3-dihydro-2-benzofurancarboxylic acid]", "values": [{"measurement": "soluble in DMSO to give a solution of", "setting": "Solubility in DMSO", "value": 10, "unit": "%"}]}, {"smiles": "Cc1ccc(S(=O)(=O)N(C)CC(=O)c2ccc3c(c2)CC(C(=O)O)O3)cc1", "note": "(stereo not drawn) [Compound 16, 5-(N-methylparatoluenesulphonamidoacetyl)-2,3-dihydro-2-benzofurancarboxylic acid]", "values": [{"measurement": "soluble in DMSO to give a solution of", "setting": "Solubility in DMSO", "value": 10, "unit": "%"}]}, {"smiles": "O=C(O)C1Cc2cc(CCNS(=O)(=O)c3ccc(Cl)cc3)ccc2O1", "note": "(stereo not drawn) [Compound 17, Sodium 5-(2-parachlorobenzenesulphonamidoethyl)-2,3-dihydro-2-benzofurancarboxylate]", "values": [{"measurement": "solubility", "setting": "Solubility in water", "value": 15000, "unit": "µg/mL"}]}, {"smiles": "CCOC(=O)C1CCc2cc(C(=O)CNS(=O)(=O)c3ccc(Cl)cc3)ccc2O1", "note": "(stereo not drawn) [Compound 20, ethyl 6-(parachlorobenzenesulphonamidoacetyl)-2-chromancarboxylate]", "values": [{"measurement": "soluble in DMSO to give a solution of", "setting": "Solubility in DMSO", "value": 25, "unit": "%"}, {"measurement": "solubility in water", "setting": "Solubility in water", "value": "insoluble in water"}]}, {"smiles": "O=C(CNS(=O)(=O)c1ccc(Cl)cc1)c1ccc2c(c1)CCC(C(=O)O)O2", "note": "(stereo not drawn) [Compound 21, 6-(parachlorobenzenesulphonamidoacetyl)-2-chromancarboxylic acid]", "values": [{"measurement": "soluble in DMSO to give a solution of", "setting": "Solubility in DMSO", "value": 25, "unit": "%"}, {"measurement": "solubility in water", "setting": "Solubility in water", "value": "insoluble in water"}]}, {"smiles": "O=C(CNS(=O)(=O)c1ccccc1)c1ccc2c(c1)CC(C(=O)O)O2", "note": "(stereo not drawn) [Compound 22, 5-(benzenesulphonamidoacetyl)-2,3-dihydro-2-benzofurancarboxylic acid]", "values": [{"measurement": "soluble in DMSO to give a solution of", "setting": "Solubility in DMSO", "value": 25, "unit": "%"}, {"measurement": "solubility in water", "setting": "Solubility in water", "value": "insoluble in water"}]}, {"smiles": "COc1ccc(S(=O)(=O)NCC(=O)c2ccc3c(c2)CC(C(=O)O)O3)cc1", "note": "(stereo not drawn) [Compound 23, 5-paramethoxybenzenesulphonamidoacetyl-2,3-dihydro-2-benzofurancarboxylic acid]", "values": [{"measurement": "soluble in DMSO to give a solution of", "setting": "Solubility in DMSO", "value": 30, "unit": "%"}]}, {"smiles": "O=C(CNS(=O)(=O)c1c(F)c(F)c(F)c(F)c1F)c1ccc2c(c1)CC(C(=O)O)O2", "note": "(stereo not drawn) [Compound 24, 5-Pentafluorobenzenesulphonamidoacetyl-2,3-dihydro-2-benzofurancarboxylic acid]", "values": [{"measurement": "soluble in DMSO to give a solution of", "setting": "Solubility in DMSO", "value": 20, "unit": "%"}, {"measurement": "solubility in water", "setting": "Solubility in water", "value": "insoluble in water"}]}, {"smiles": "O=C(CNS(=O)(=O)c1ccc(Cl)cc1)c1ccc2c(c1)CC(C(=O)O)O2", "note": "(stereo not drawn) [Compound 25, (dl)-Lysine 5-parachlorobenzenesulphonamidoacetyl-2,3-dihydro-2-benzofurancarboxylate trihydrate]", "values": [{"measurement": "solubility", "setting": "Solubility in water", "value": 10000, "unit": "µg/mL"}]}, {"smiles": "O=C(O)C1CCc2cc(CCNS(=O)(=O)c3ccc(Cl)cc3)ccc2O1", "note": "(stereo not drawn) [Compound 26, (dl)-Lysine 6-(2-parachlorobenzenesulphonamidoethyl)-2-chromancarboxylate]", "values": [{"measurement": "solubility", "setting": "Solubility in water", "value": 10000, "unit": "µg/mL"}]}, {"smiles": "O=C(CNS(=O)(=O)c1ccc(Cl)cc1)c1ccc2c(c1)CC(C(=O)O)C2", "note": "(stereo not drawn) [Compound 28, 5-(Parachlorobenzenesulphonamidoacetyl)-2-indanecarboxylic acid]", "values": [{"measurement": "soluble in DMSO to give a solution of", "setting": "Solubility in DMSO", "value": 15, "unit": "%"}, {"measurement": "solubility in water", "setting": "Solubility in water", "value": "insoluble in water"}]}]}
